Among the data in patent US8486977B2, “1,2,3-triazole derivatives for use as stearoyl-CoA desaturase inhibitors” (GlaxoSmithKline LLC, priority 2007, dated 2013) are melting point values, retold here.

SMILES strings stand for the structures.

Consider `COc1ccc(NC(=O)c2nnn(Cc3ccc(F)cc3)c2C)cc1OC`, for which the melting point – broadly, the temperature, or range, at which the solid turns liquid – amounted to 119.7 °C.
To `Cc1ccc(Cn2nnc(C(=O)Nc3ccc(OCCC(C)C)cc3)c2C)cc1` belongs 105 °C; to `Cc1c(C(=O)Nc2ccc(OCCC(C)C)cc2)nnn1Cc1ccc(C(C)C)cc1`, 114 °C (dec.).
Then `COc1ccc(NC(=O)c2nnn(Cc3ccc(C)cc3)c2C)cc1OC`, with 156 °C (dec.).
The compound `COc1ccc(NC(=O)c2cn(Cc3ccc(F)cc3)nn2)cc1OC` showed a melting point of 197.8 °C.
Then `COc1ccc(NC(=O)c2nnn(Cc3ccc(Br)cc3)c2C)cc1OC`, with 173 °C; and `Cc1c(C(=O)Nc2cccc(O)c2)nnn1Cc1ccc(Cl)c(Cl)c1`, with 192.5 °C; and `Cc1c(C(=O)Nc2ccc(OCCC(C)C)cc2)nnn1Cc1ccc(F)cc1`, with 114 °C.
To `Cc1c(C(=O)Nc2ccc(OCCC(C)C)cc2)nnn1Cc1ccc(Br)cc1` belongs 137 °C.
To `C=C(C)c1ccc(NC(=O)c2nnn(Cc3ccc(Cl)c(Cl)c3)c2C)c(OC)c1` belongs 170 °C; to `Cc1c(C(=O)Nc2ccc(OCCC(C)C)cc2)nnn1Cc1ccccc1`, 124 °C.
Regarding `Cc1c(C(=O)Nc2ccc(OCc3ccccc3)cc2)nnn1Cc1ccc(Br)cc1` [Example 3, 1-[(4-Bromophenyl)methyl]-5-methyl-N-{4-[(phenylmethyl)oxy]phenyl}-1H-1,2,3-triazole-4-carboxamide], the melting point was 168.7 °C.
Then `Cc1c(C(=O)Nc2ccc(OCc3ccccc3)cc2)nnn1Cc1ccc(F)cc1` [Example 4, 1-[(4-Fluorophenyl)methyl]-5-methyl-N-{4-[(phenylmethyl)oxy]phenyl}-1H-1,2,3-triazole-4-carboxamide], with 139.4 °C.
To `Cc1c(C(=O)Nc2ccc(OCc3ccccc3)cc2)nnn1Cc1ccccc1` [Example 7, 5-Methyl-1-(phenylmethyl)-N-{4-[(phenylmethyl)oxy]phenyl}-1H-1,2,3-triazole-4-carboxamide] belongs 125 °C.
Then `Cc1c(C(=O)Nc2ccc(OCCC(C)C)cc2)nnn1Cc1ccc(-c2ccccc2Cl)cc1` [Example 9, 1-[(2’-Chloro-4-biphenylyl)methyl]-5-methyl-N-{4-[(3-methylbutyl)oxy]phenyl}-1H-1,2,3-triazole-4-carboxamide], with 125 °C (dec.); and `Cc1c(C(=O)Nc2ccc(-c3ncco3)cc2)nnn1Cc1ccc(Cl)c(Cl)c1` [Example 15, 1-[(3,4-Dichlorophenyl)methyl]-5-methyl-N-[4-(1,3-oxazol-2-yl)phenyl]-1H-1,2,3-triazole-4-carboxamide], with 218 °C; and `COC(=O)c1ccc(NC(=O)c2nnn(Cc3ccc(Cl)c(Cl)c3)c2C)c(OC)c1` [Example 17, Methyl 4-[({1-[(3,4-dichlorophenyl)methyl]-5-methyl-1H-1,2,3-triazol-4-yl}carbonyl)amino]-3-(methyloxy)benzoate], with 212 °C.
Turning to `CNC(=O)c1cccc(NC(=O)c2nnn(Cc3ccc(Cl)c(Cl)c3)c2C)c1` [Example 18, 1-[(3,4-Dichlorophenyl)methyl]-5-methyl-N-{3-[(methylamino)carbonyl]phenyl}-1H-1,2,3-triazole-4-carboxamide], the melting point amounted to 203.9 °C.
Compound `CNC(=O)c1ccc(NC(=O)c2nnn(Cc3ccc(Cl)c(Cl)c3)c2C)cc1` [Example 19, 1-[(3,4-Dichlorophenyl)methyl]-5-methyl-N-{4-[(methylamino)carbonyl]phenyl}-1H-1,2,3-triazole-4-carboxamide] came in with a melting point of 183.7 °C.
To `CCOC(=O)c1cccc(NC(=O)c2nnn(Cc3ccc(Cl)c(Cl)c3)c2C)c1` [Example 20, Ethyl 3-[({1-[(3,4-dichlorophenyl)methyl]-5-methyl-1H-1,2,3-triazol-4-yl}carbonyl)amino]benzoate] belongs 131.8 °C; to `CC(=O)Nc1cccc(NC(=O)c2nnn(Cc3ccc(Cl)c(Cl)c3)c2C)c1` [Example 21, N-[3-(Acetylamino)phenyl]-1-[(3,4-dichlorophenyl)methyl]-5-methyl-1H-1,2,3-triazole-4-carboxamide], 203.4 °C.
For the compound `CC(=O)Nc1ccc(NC(=O)c2nnn(Cc3ccc(Cl)c(Cl)c3)c2C)cc1` [Example 22, N-[4-(Acetylamino)phenyl]-1-[(3,4-dichlorophenyl)methyl]-5-methyl-1H-1,2,3-triazole-4-carboxamide], the melting point amounted to 202.4 °C.
`Cc1c(CO)cccc1NC(=O)c1nnn(Cc2ccc(Cl)c(Cl)c2)c1C` [Example 23, 1-[(3,4-Dichlorophenyl)methyl]-N-[3-(hydroxymethyl)-2-methylphenyl]-5-methyl-1H-1,2,3-triazole-4-carboxamide] yielded a melting point of 174.3 °C.
Then `Cc1c(C(=O)Nc2cccc(CO)c2)nnn1Cc1ccc(Cl)c(Cl)c1` [Example 24, 1-[(3,4-Dichlorophenyl)methyl]-N-[3-(hydroxymethyl)phenyl]-5-methyl-1H-1,2,3-triazole-4-carboxamide], with 185.2 °C; and `COC(=O)c1ccc(OC)c(NC(=O)c2nnn(Cc3ccc(Cl)c(Cl)c3)c2C)c1` [Example 25, Methyl 3-[({1-[(3,4-dichlorophenyl)methyl]-5-methyl-1H-1,2,3-triazol-4-yl}carbonyl)amino]-4-(methyloxy)benzoate], with 203 °C.
Then `Cc1c(C(=O)Nc2ccc(O)c(CO)c2)nnn1Cc1ccc(Cl)c(Cl)c1` [Example 26, 1-[(3 4 Dichlorophenyl)methyl]-N-[4-hydroxy-3-(hydroxymethyl)phenyl]-5-methyl-1H-1,2,3-triazole-4-carboxamide], with 175.6 °C; and `CCOC(=O)Cc1ccc(NC(=O)c2nnn(Cc3ccc(Cl)c(Cl)c3)c2C)cc1` [Example 27, Ethyl {4-[({1-[(3,4-dichlorophenyl)methyl]-5-methyl-1H-1,2,3-triazol-4-yl}carbonyl)amino]phenyl}acetate], with 139 °C.
Then `COC(=O)c1ccc(NC(=O)c2nnn(Cc3ccc(Cl)c(Cl)c3)c2C)cc1OC` [Example 28, Methyl 4-[({1-[(3,4-dichlorophenyl)methyl]-5-methyl-1H-1,2,3-triazol-4-yl}carbonyl)amino]-2-(methyloxy)benzoate], with 175.9 °C; and `COC(=O)c1cc(NC(=O)c2nnn(Cc3ccc(Cl)c(Cl)c3)c2C)ccc1O` [Example 29, Methyl 5-[({1-[(3,4-dichlorophenyl)methyl]-5-methyl-1H-1,2,3-triazol-4-yl}carbonyl)amino]-2-hydroxybenzoate], with 180 °C.
As for `COC(=O)Cc1cccc(NC(=O)c2nnn(Cc3ccc(Cl)c(Cl)c3)c2C)c1` [Example 30, Methyl {3-[({1-[(3,4-dichlorophenyl)methyl]-5-methyl-1H-1,2,3-triazol-4-yl}carbonyl)amino]phenyl}acetate], the melting point is 116 °C.
As to `COC(=O)c1cc(NC(=O)c2nnn(Cc3ccc(Cl)c(Cl)c3)c2C)ccc1F` [Example 32, Methyl 5-[({1-[(3,4-dichlorophenyl)methyl]-5-methyl-1H-1,2,3-triazol-4-yl}carbonyl)amino]-2-fluorobenzoate], the melting point came out at 169.8 °C.
To `COc1ccc(C(N)=O)cc1NC(=O)c1nnn(Cc2ccc(Cl)c(Cl)c2)c1C` [Example 33, N-[5-(Aminocarbonyl)-2-(methyloxy)phenyl]-1-[(3,4-dichlorophenyl)methyl]-5-methyl-1H-1,2,3-triazole-4-carboxamide] belongs 218.2 °C; to `COC(=O)c1ccc(Cl)c(NC(=O)c2nnn(Cc3ccc(Cl)c(Cl)c3)c2C)c1` [Example 34, Methyl 4-chloro-3-[({1-[(3,4-dichlorophenyl)methyl]-5-methyl-1H-1,2,3-triazol-4-yl}carbonyl)amino]benzoate], 206.4 °C; to `COC(=O)Cc1ccc(OC)c(NC(=O)c2nnn(Cc3ccc(Cl)c(Cl)c3)c2C)c1` [Example 35, Methyl [3-[({1-[(3,4-dichlorophenyl)methyl]-5-methyl-1H-1,2,3-triazol-4-yl}carbonyl)amino]-4-(methyloxy)phenyl]acetate], 133 °C.
To `COC(=O)c1ccc(F)c(NC(=O)c2nnn(Cc3ccc(Cl)c(Cl)c3)c2C)c1` [Example 36, Methyl 3-[({1-[(3,4-dichlorophenyl)methyl]-5-methyl-1H-1,2,3-triazol-4-yl}carbonyl)amino]-4-fluorobenzoate] belongs 195.7 °C; to `Cc1c(C(=O)Nc2cccc(CO)c2)nnn1Cc1ccccc1` [Example 37, N-[3-(Hydroxymethyl)phenyl]-5-methyl-1-(phenylmethyl)-1H-1,2,3-triazole-4-carboxamide], 105.8 °C; to `Cc1c(C(=O)Nc2ccc(CO)cc2)nnn1Cc1ccccc1` [Example 38, N-[4-(Hydroxymethyl)phenyl]-5-methyl-1-(phenylmethyl)-1H-1,2,3-triazole-4-carboxamide], 149.1 °C.
Then `Cc1c(CO)cccc1NC(=O)c1nnn(Cc2ccccc2)c1C` [Example 39, N-[3-(Hydroxymethyl)-2-methylphenyl]-5-methyl-1-(phenylmethyl)-1H-1,2,3-triazole-4-carboxamide], with 157 °C; and `Cc1c(C(=O)Nc2cccc(CO)c2)nnn1Cc1cc(Cl)cc(Cl)c1` [Example 40, 1-[(3,5-Dichlorophenyl)methyl]-N-[3-(hydroxymethyl)phenyl]-5-methyl-1H-1,2,3-triazole-4-carboxamide], with 159 °C; and `COC(=O)c1ccc(OC)c(NC(=O)c2nnn(Cc3cc(Cl)cc(Cl)c3)c2C)c1` [Example 41, Methyl 3-[({1-[(3,5-dichlorophenyl)methyl]-5-methyl-1H-1,2,3-triazol-4-yl}carbonyl)amino]-4-(methyloxy)benzoate], with 213 °C.
`Cc1c(CO)cccc1NC(=O)c1nnn(Cc2cc(Cl)cc(Cl)c2)c1C` [Example 42, 1-[(3,5-Dichlorophenyl)methyl]-N-[3-(hydroxymethyl)-2-methylphenyl]-5-methyl-1H-1,2,3-triazole-4-carboxamide] yielded a melting point of 185 °C.
